How the values were obtained:
Test in all cases: NCI In Vitro Cell Line Screening (SRB)
CCRF-CEM = assay type: cell-based, human; settings: Leukemia, 48 h
RPMI-8226 = assay type: cell-based, human; settings: RPMI-8226, Leukemia, 48 h
SR = assay type: cell-based; settings: Leukemia, 48 h
HOP-62 = assay type: cell-based, human; settings: HOP-62, Non-Small Cell Lung Cancer, 48 h
HOP-92 = assay type: cell-based, human; settings: HOP-92, Non-Small Cell Lung Cancer, 48 h
NCI-H23 = assay type: cell-based; settings: NCI-H23, Non-Small Cell Lung Cancer, 48 h
HCC-2998 = assay type: cell-based; settings: HCC-2998, Colon Cancer, 48 h
HCT-15 = assay type: cell-based, human; settings: HCT-15, Colon Cancer, 48 h
HT29 = assay type: cell-based; settings: HT29, Colon Cancer, 48 h
KM12 = assay type: cell-based, human; settings: KM12, Colon Cancer, 48 h
SF-295 = assay type: cell-based, human; settings: SF-295, CNS Cancer, 48 h
SNB-19 = assay type: cell-based, human; settings: SNB-19, CNS Cancer, 48 h
SNB-75 = assay type: cell-based, human; settings: SNB-75, CNS Cancer, 48 h
U251 = assay type: cell-based, human; settings: U251, CNS Cancer, 48 h
MALME-3M = assay type: cell-based, human; settings: Melanoma, 48 h
SK-MEL-28 = assay type: cell-based, human; settings: SK-MEL-28, Melanoma, 48 h
OVCAR-4 = assay type: cell-based, human; settings: OVCAR-4, Ovarian Cancer, 48 h
OVCAR-5 = assay type: cell-based, human; settings: OVCAR-5, Ovarian Cancer, 48 h
SK-OV-3 = assay type: cell-based, human; settings: SK-OV-3, Ovarian Cancer, 48 h
786-0 = assay type: cell-based, human; settings: 786-0, Renal Cancer, 48 h
TK-10 = assay type: cell-based, human; settings: TK-10, Renal Cancer, 48 h
UO-31 = assay type: cell-based, human; settings: UO-31, Renal Cancer, 48 h
DU-145 = assay type: cell-based, human; settings: DU-145, Prostate Cancer, 48 h
MCF7 = assay type: cell-based, human; settings: MCF7, Breast Cancer, 48 h
NCI/ADR-RES = assay type: cell-based, human; settings: Breast Cancer, 48 h
T-47D = assay type: cell-based, human; settings: Breast Cancer, 48 h
OVCAR-3 = tested on: OVCAR-3
MDA-MB-468 = tested on: MDA-MB-468
[1] = Homo sapiens, read-out: LC50 (the source's name)

SMILES: Cc1ccc(NC(=O)[C@@H](CCCCN)NC(=O)Nc2ccc3c(c2)Cc2ccccc2-3)cc1 [Compound 173, (R)-6-AMINO-2-[3-(9H-FLUOREN-2-YL)-UREIDO]-HEXANOIC ACID P-TOLYLAMIDE]
- GI50 (CCRF-CEM; Homo sapiens): 1.97 µM
- CC50 (CCRF-CEM; [1]): > 100 µM
- TGI (CCRF-CEM): 5.15 µM
- GI50 (RPMI-8226; Homo sapiens): 1.59 µM
- CC50 (RPMI-8226; [1]): > 100 µM
- TGI (RPMI-8226): 4.87 µM
- GI50 (SR; Homo sapiens): 1.3 µM
- TGI (SR): 3.41 µM
- TGI (HOP-62): 3.79 µM
- GI50 (HOP-62; Homo sapiens): 1.88 µM
- TGI (HOP-92): 5.13 µM
- GI50 (HOP-92; Homo sapiens): 1.37 µM
- CC50 (HOP-92; [1]): 38.5 µM
- GI50 (NCI-H23; Homo sapiens): 3.45 µM
- LC50 (concentration giving 50% net cell kill) (NCI-H23; Homo sapiens): > 100 µM
- TGI (NCI-H23): 19.6 µM
- TGI (HCC-2998): 4.88 µM
- GI50 (HCC-2998; Homo sapiens): 2.22 µM
- LC50 (lethal concentration, 50% cell kill) (HCC-2998; Homo sapiens): 17.5 µM
- TGI (HCT-15): 87.8 µM
- GI50 (HCT-15; Homo sapiens): 23.9 µM
- CC50 (HCT-15; [1]): > 100 µM
- TGI (HT29): >100 µM
- GI50 (HT29; Homo sapiens, HT-29): 3.64 µM
- CC50 (HT29; Homo sapiens, HT-29, read-out: LC50 (the source's name)): > 100 µM
- GI50 (KM12; Homo sapiens): 1.31 µM
- CC50 (KM12; [1]): 5.07 µM
- TGI (KM12): 2.57 µM
- GI50 (SF-295; Homo sapiens): 0.341 µM
- CC50 (SF-295; [1]): 5.17 µM
- TGI (SF-295): 2.07 µM
- GI50 (SNB-19; Homo sapiens): 1.59 µM
- TGI (SNB-19): 3.21 µM
- GI50 (SNB-75; Homo sapiens): 1.61 µM
- CC50 (SNB-75; [1]): > 100 µM
- TGI (SNB-75): 4.65 µM
- GI50 (U251; Homo sapiens, U-251): 1.49 µM
- CC50 (U251; Homo sapiens, U-251, read-out: LC50 (the source's name)): 5.3 µM
- TGI (U251): 2.80 µM
- GI50 (MALME-3M; Homo sapiens): 1.55 µM
- CC50 (MALME-3M; [1]): 8.23 µM
- TGI (MALME-3M): 3.57 µM
- GI50 (SK-MEL-28; Homo sapiens): 1.43 µM
- CC50 (SK-MEL-28; [1]): 5.43 µM
- TGI (SK-MEL-28): 2.79 µM
- GI50 (OVCAR-4; Homo sapiens): 9.3 µM
- CC50 (OVCAR-4; [1]): > 100 µM
- TGI (OVCAR-4): 68.8 µM
- GI50 (OVCAR-5; Homo sapiens): 1.92 µM
- CC50 (OVCAR-5; [1]): 6.57 µM
- TGI (OVCAR-5): 3.55 µM
- GI50 (SK-OV-3; Homo sapiens): 1.61 µM
- CC50 (SK-OV-3; [1]): 5.88 µM
- TGI (SK-OV-3): 3.08 µM
- TGI (786-0): 11.1 µM
- GI50 (786-0; Homo sapiens): 3.42 µM
- CC50 (786-0; [1]): 91.1 µM
- GI50 (TK-10; Homo sapiens): 3.59 µM
- CC50 (TK-10; [1]): 55.4 µM
- TGI (TK-10): 17.6 µM
- GI50 (UO-31; Homo sapiens): > 100 µM
- CC50 (UO-31; [1]): > 100 µM
- TGI (UO-31): >100 µM
- TGI (DU-145): 20.0 µM
- GI50 (DU-145; Homo sapiens): 6.94 µM
- CC50 (DU-145; [1]): 46.3 µM
- GI50 (MCF7; Homo sapiens): 1.45 µM
- CC50 (MCF7; [1]): 5.29 µM
- TGI (MCF7): 2.77 µM
- TGI (NCI/ADR-RES): >100 µM
- GI50 (NCI/ADR-RES; Homo sapiens): > 100 µM
- CC50 (NCI/ADR-RES; [1]): > 100 µM
- TGI (T-47D): 3.78 µM
- GI50 (T-47D; Homo sapiens, T47D): 1.7 µM
- CC50 (T-47D; Homo sapiens, T47D, read-out: LC50 (the source's name)): 8.41 µM
- GI50 (OVCAR-3; Homo sapiens, OVCAR-3, 48 h): 1.31 µM
- CC50 (OVCAR-3; Homo sapiens, OVCAR-3, 48 h, read-out: LC50): 31.6 µM
- TGI (OVCAR-3; OVCAR-3, Ovarian Cancer, 48 h): 9.94 µM
- GI50 (MDA-MB-468; Homo sapiens, MDA-MB-468, 48 h): 1.66 µM
- CC50 (MDA-MB-468; Homo sapiens, MDA-MB-468, 48 h, read-out: LC50): 8.31 µM
- TGI (MDA-MB-468; MDA-MB-468, Breast Cancer, 48 h): 3.72 µM

Reference: patent US20080171783A1, “COMPOSITIONS AND METHODS FOR TREATING HYPERPROLIFERATIVE DISEASE” (Migenix Inc., priority 2006, published 2008)
